According to patent US4766108A, “Tyr-Arg-vasopressin antagonists” (Smith Kline Beckman Corporation, priority 1986, dated 1988):
Numbered stars: 1 amine (or outer) side, 2 acyl side, 3 side chain; on linkers, the order of the positions; unused ones are H or OH. Bridge positions count the residues as written; N and C are the ends. Square brackets hold non-standard residues; d marks the D form. Peptide text beside a SMILES is read from it. X1 = O=C(CC1(S[*:2])CCCCC1)[*:1]

Legend:
[1] = target: T1, V1 receptor, human liver membrane (Homo sapiens, UniProt P37288); test: Binding to human liver membrane (V1 receptor); details: read-out: Kbind human liver (V1 receptor)
T1 construct: from tissue; host or cells: human liver membranes
Description: (§1) V2 -antagonistic activity toward the natural anti-diuretic hormone (anti-ADH activity) is determined, in vitro, in the medullary tissue of hog or human kidneys and, in vivo, in the hydropenic rat. The in vitro assay procedures for vasopressin stimulated adenylate cyclase activation or vasopressin binding activity are described by F. Stassen et al., J. Pharmacology and Experimental Therapeutics, 223, 50-54 (1982). V1 -antagonistic activity is determined by procedures using the rat thoracic aortic tissue and plasma membranes of rat liver. These procedures are described in the noted Stassen publication and in a publication at the lst International Conference on Diuretics, Miami, Fla., March (1984). Oxytocin antagonism is determined as described by W. Sawyer et al., Endocrinology, 106 81 (1979).
^d Kbind relates to human liver membrane activity.

[2] = target: T2, vasopressin receptors (V2 -receptors) in the porcine renal medullary membrane (Sus scrofa, UniProt P32307); test: [3H]-LVP binding, porcine renal medullary membrane (Kbind); details: affinity of ligand for receptor in porcine renal medullary membrane; from IC50 of [3H]-LVP binding, Kb = IC50/(1 + L/KD)
T2 construct: the porcine renal medullary membrane; It is derived from the equation for; from tissue; host or cells: porcine (hog) kidney medullary membranes
Description: as §1, with “(1979). | ^a Kbind is a measure of the affinity of ligand for receptor in | the porcine renal medullary membrane. It is derived from the equation for | competitive inhibition Kb = IC50 /(1 + L/KD) where | IC50 is the concentration of the ligand for 50% inhibition of [^ | H]-LVP binding, L is the concentration of the ligand, and KD is the | dissociation constant of [ ^3 H]-LVP.” for “(1979).”

T2 sequence (P32307 whole entry): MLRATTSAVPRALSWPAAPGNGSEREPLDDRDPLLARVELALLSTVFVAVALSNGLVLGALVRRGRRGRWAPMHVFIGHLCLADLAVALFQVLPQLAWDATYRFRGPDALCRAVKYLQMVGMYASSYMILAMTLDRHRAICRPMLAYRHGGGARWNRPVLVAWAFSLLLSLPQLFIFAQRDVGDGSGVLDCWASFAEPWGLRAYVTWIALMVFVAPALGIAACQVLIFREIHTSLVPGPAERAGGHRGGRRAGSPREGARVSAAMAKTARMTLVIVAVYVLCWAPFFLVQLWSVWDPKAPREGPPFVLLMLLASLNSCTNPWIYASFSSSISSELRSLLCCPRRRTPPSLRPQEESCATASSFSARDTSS
T1 sequence (P37288 whole entry): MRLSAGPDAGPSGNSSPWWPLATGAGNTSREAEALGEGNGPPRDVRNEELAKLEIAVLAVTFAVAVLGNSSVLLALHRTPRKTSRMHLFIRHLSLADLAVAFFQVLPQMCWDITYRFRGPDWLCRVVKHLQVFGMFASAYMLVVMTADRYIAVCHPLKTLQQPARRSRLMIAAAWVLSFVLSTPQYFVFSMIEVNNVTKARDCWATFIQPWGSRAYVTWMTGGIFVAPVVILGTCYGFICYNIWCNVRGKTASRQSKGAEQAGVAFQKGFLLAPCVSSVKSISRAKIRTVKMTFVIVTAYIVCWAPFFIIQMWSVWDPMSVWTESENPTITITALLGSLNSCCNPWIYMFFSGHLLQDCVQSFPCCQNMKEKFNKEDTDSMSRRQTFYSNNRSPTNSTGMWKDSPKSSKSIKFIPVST

Compound | Ki [1] [nM] | Ki [2] [nM]
CCOc1ccc(C[C@H]2NC(=O)CC3(CCCCC3)SSC[C@@H](C(=O)N[C@@H](CCCNC(=N)N)C(=O)N[C@@H](Cc3ccc(O)cc3)C(N)=O)NC(=O)[C@H](CC(N)=O)NC(=O)[C@H](C(C)C)NC(=O)[C@H](Cc3ccccc3)NC2=O)cc1 [No. 2, [1-(β-mercapto-β,β-cyclopentamethylene-propionic acid)-2-(O-ethyl)-D-tyrosine-4-valine-7-arginine-8-tyrosine-9-desglycine]-vasopressin] ([dY](Et)FVNCRY-NH2; linker N-5 via X1) | 1.8 | 23
CCOc1ccc(C[C@H]2NC(=O)CC3(CCCCC3)SSC[C@@H](C(=O)N[C@@H](Cc3ccc(O)cc3)C(=O)N[C@@H](CCCNC(=N)N)C(N)=O)NC(=O)[C@H](CC(N)=O)NC(=O)[C@H](C(C)C)NC(=O)[C@H](Cc3ccccc3)NC2=O)cc1 [No. 1, [1-(β-mercapto-β,β-cyclopentamethylene-propionic acid)-2-(O-ethyl)-D-tyrosine-4-valine-7-tyrosine-8-arginine-desglycine]-vasopressin] ([dY](Et)FVNCYR-NH2; linker N-5 via X1) | – | 14
CCOc1ccc(C[C@H]2NC(=O)CC3(CCCCC3)SSC[C@@H](C(=O)N[C@@H](CCCCN)C(=O)N[C@@H](CCCNC(=N)N)C(N)=O)NC(=O)[C@H](CC(N)=O)NC(=O)[C@H](C(C)C)NC(=O)[C@H](Cc3ccccc3)NC2=O)cc1 [compound 4] ([dY](Et)FVNCKR-NH2; linker N-5 via X1) | – | 8.8
CCOc1ccc(C[C@H]2NC(=O)CC3(CCCCC3)SSC[C@@H](C(=O)N[C@@H](CCCNC(=N)N)C(N)=O)NC(=O)[C@H](CC(N)=O)NC(=O)[C@H](C(C)C)NC(=O)[C@H](Cc3ccccc3)NC2=O)cc1 [compound 5] ([dY](Et)FVNCR-NH2; linker N-5 via X1) | 1.2 | 11
CCOc1ccc(C[C@H]2NC(=O)CC3(CCCCC3)SSC[C@@H](C(=O)N[C@@H](CCCNC(=N)N)C(=O)N[C@@H](CCCNC(=N)N)C(N)=O)NC(=O)[C@H](CC(N)=O)NC(=O)[C@H](C(C)C)NC(=O)[C@H](Cc3ccccc3)NC2=O)cc1 [compound 3] ([dY](Et)FVNCRR-NH2; linker N-5 via X1) | – | 2.7
